Values joined by “and” are separate entries in the source; they are usually repeats but may differ in a detail not shown here. Equal entries are not always repeated.
Molecular target: Aurora kinase B (Homo sapiens, UniProt Q96GD4)
Assay: Isothermal Titration Calorimetry (ITC)
Details: pH 8; 25 °C
Experimental: Calorimetric titrations were performed in a Microcal iTC 200 microcalorimeter. Freshly purified 5 µM protein (Aurora A/B kinases) was titrated against 100 µM ligand (felodipine/ PTK66) in each case at 25 °C. Proteins and the ligandswere diluted in the final dialysate (20 mM Tris-HCl, pH 8.0, 0.2 mM EDTA and 100 mM KCl) against which the proteins were extensively dialysed to avoid any artefact due to the minor differences in buffer composition. DMSO content was kept exactly same in the cell (not exceeding 0.2% v/v) and syringe to rule out any interference due to DMSO content mismatch. All samples were thoroughly degassed prior to titration and were prepared with the same batch of dialysate to avoid any artefacts from the minor differences in buffer composition. Dilutions of 100 µM felodipine/PTK66 in dialysate containing equal percentage of DMSOserved as controls. The stirring speed was 300 rpm.

Aurora kinase B, sequence (Q96GD4 whole entry): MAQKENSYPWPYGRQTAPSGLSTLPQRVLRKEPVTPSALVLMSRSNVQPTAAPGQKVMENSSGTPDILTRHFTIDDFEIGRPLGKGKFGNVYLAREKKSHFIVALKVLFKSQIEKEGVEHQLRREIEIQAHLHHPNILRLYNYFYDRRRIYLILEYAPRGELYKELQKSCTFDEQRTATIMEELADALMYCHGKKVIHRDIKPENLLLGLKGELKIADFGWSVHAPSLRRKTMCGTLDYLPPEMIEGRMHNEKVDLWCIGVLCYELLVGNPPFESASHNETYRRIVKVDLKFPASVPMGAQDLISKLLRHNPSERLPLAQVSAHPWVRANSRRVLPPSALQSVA

Q: With `CCOC(=O)C1=C(C)NC(C)=C(C(=O)OC)[C@H]1c1cccc(Cl)c1Cl` [5-O-ethyl 3-O-methyl 4-(2,3-dichlorophenyl)-2,6-dimethyl-1,4-dihydropyridine-3,5-dicarboxylate] as the compound, how does the Kd read?
A: 1.14 µM

Q: How did the Kd turn out when `Cc1cc(O)cc(O)c1/N=N/c1nccs1` [5-methyl-4-(2-thiazolylazo)resorcinol] was run?
A: 1.75 µM and 0.5 µM

— BindingDB's records for doi:10.1111/cbdd.12728 (Jawaharlal Nehru Centre For Advanced Scientific Research, 2016)
